These results are taken from patent publication US20200405881A1, “CELL BASED METHODS AND COMPOSITIONS FOR THERAPEUTIC AGENT DELIVERY AND TREATMENTS USING SAME” (UNIVERSITY OF WASHINGTON, priority 2017, published 2020).

In data set [1] the test system is macrophages. The experiment in a line: Toxicity of drugamers to macrophages (Examples 5 and 6). The note with it: 50 or 500 ng/mL drugamer; data not shown. Type of data set: cell-based. Here is the method:
Methods: CD14+ monocytes were isolated from PBMCs and differentiated to macrophages in RPMI/10% FBS with 10 ng/mL GM-CSF. After 6 days in culture, cells were replated into a 12 well dish, with 250K cells/well. The following day, they were mock transduced or transduced with vector control (EGFRt) or membrane-bound anti-FITC:EGFRt. Media was changed every 3 days. Seven days after transduction, all cells were washed twice with PBS and treated with either 50 or 500 ng/mL drugamer, which contained FITC and CMP8, in PBS. After a 15 min incubation at 37° C., cells were washed twice with PBS and one group of cells (“15 min”) was non-enzymatically detached with VERSENE™ and immediately fixed for flow with 2% paraformaldehyde. After the PBS wash, the other group of cells was allowed to recover in RP10 for 72 hours before detaching/fixing
Methods: CD14+ monocytes were isolated from PBMCs and differentiated to macrophages in RPMI/10% FBS with 10 ng/mL GM-CSF. After 6 days in culture, cells were replated into a 12 well dish, with 250K cells/well. The following day, they were mock transduced or transduced with vector control (EGFRt) or membrane-bound anti-FITC:EGFRt. Media was changed every 3 days. […] Rhodamine fluorescence was measured, indicating the presence of drugamer following 10 days in culture (data not shown).

Data set [2] has as its system primary macrophages. The experiment in a line: Free resiquimod and galunisertib testing, toxicity (Example 9). Type of data set: cell-based, human. The note with it: Resiquimod 1 ug/ml and/or Galunisertib 56 nM, alone or in combination. Here is the method:
(§1) Methods: CD14+ monocytes were isolated from PBMCs and differentiated to macrophages in RPMI/10% FBS with 10 ng/mL GM-CSF or 25 ng/ml M-CSF for 6 days. Macrophages were incubated with Resiquimod (1 ug/ml) and/or Galunisertib (56 nM) for 1 hour, then stimulated with 1 ug LPS/100U/ml IFNg to determine impact on viability using flow cytometry of cells and pro-inflammatory responsiveness using a 30plex for human cytokines on cell supernatant 24 hours after stimulation. Expression of bFGF, IL-1B, GCSF, IL10, 1L^13, IL6, IL12, Rantes, MIP1a, GMCSF, MIP1B, MCP1, IL15, EGF, IL5, HGF, VEGF, IFNg, IFNa, IL1RA, TNFa, IL7, IP10, IL2R, MIG, and IL8 was measured in the following treatment groups: M1 control, M1 resiquimod, M1 galunisertib, M1 resiquimod+galunisertib, M1 LPS/IFNg+resiquimod, M1 LPS/IFNg+galunisertib, M1 LPS/IFNg+resiquimod, +galunisertib, M2 control, M2 resiquimod, M2 galunisertib, M2 resiquimod+galunisertib, M2 LPS/IFNg+resiquimod, M2 LPS/IFNg+galunisertib, and M LPS/IFNg+resiquimod, +galunisertib (data not shown). […]

In data set [3] the test system is macrophages. In words: Free resiquimod and galunisertib testing, cytokines and phenotype (Example 9). Type of data set: cell-based, human. The note with it: Galunisertib 56 nM for 1 hour, on its own. Here is the method:
as §1

Data set [4] has as its system MCSF polarized M2 macrophages. The experiment in a line: Free PI103 testing, flow cytometry of surface markers (Example 8). Type of data set: cell-based, human. The note with it: 500 nM PI103. Here is the method:
(§2) Methods: CD14+ monocytes were isolated from PBMCs and differentiated to macrophages in RPMI/10% FBS with 10 ng/mL GM-CSF or 25 ng/ml M-CSF for 6 days. Macrophages were incubated with 500 nM PI103 for 1 hour, then stimulated with 1 ug LPS/100U/ml IFNg to determine impact on viability using flow cytometry of cells and pro-inflammatory responsiveness using a 30plex for human cytokines on cell supernatant 24 hours after stimulation. The expression of MIP1B, MCP1, IL15, EGF, HGF, VEGF, IFNg, IFNa, IL1RA, TNFa, IL7, IP10, IL2R, MIG, IL4, and IL8 was determined for each of the following groups: M1 control, M1 PI103, M1 LPS/IFNg, M1 PI103 LPS/IFNg, M2 control, M2 PI103, M2 LPS/IFNg, and M2 PI103 LPS/IFNg (data not shown). A summary of the significant data when using t-test to compare between treatment groups with and without Pi103 is shown for M1 macrophages in FIG. 22A and M2 macrophages in FIG. 22B. Flow cytometry staining included Live/Dead, HLA-DR, CD11b and CD14 to confirm expression of macrophage surface markers and viability (data not shown), as well as CD206 (anti-inflammatory macrophage marker; data not shown), CD163 (anti-inflammatory macrophage marker; data not shown), CD80 and CD86 (costimulatory molecules; data not shown).
On the technique in general: In flow cytometry, cells or beads pass a laser one at a time.

Data set [5] relates to M2 polarized macrophages. The experiment in a line: Free PI103 testing, 30plex cytokines, M2 macrophages (Example 8). As to conditions: 500 nM PI103 for 1 hour, then LPS/IFNg, 24 hours. The class given is cell-based, human. Here is the method:
as §2, with “22B.” for “22B. Flow cytometry staining included Live/Dead, HLA-DR, CD11b and CD14 to confirm expression of macrophage surface markers and viability (data not shown), as well as CD206 (anti-inflammatory macrophage marker; data not shown), CD163 (anti-inflammatory macrophage marker; data not shown), CD80 and CD86 (costimulatory molecules; data not shown).”

Data set [6] relates to M1 polarized macrophages. In words: Free PI103 testing, 30plex cytokines, M1 macrophages (Example 8). Type of data set: cell-based, human. As to conditions: 500 nM PI103 for 1 hour, then LPS/IFNg, 24 hours. Here is the method: as §2, with “22B.” for “22B. Flow cytometry staining included Live/Dead, HLA-DR, CD11b and CD14 to confirm expression of macrophage surface markers and viability (data not shown), as well as CD206 (anti-inflammatory macrophage marker; data not shown), CD163 (anti-inflammatory macrophage marker; data not shown), CD80 and CD86 (costimulatory molecules; data not shown).”

In data set [7] the test system is CCR expressing CAR T cells. In words: Exhaustion marker expression on CAR T cells cultured with macrophage derived IL-7 (Example 10). As to conditions: in contrast to culture with recombinant IL-7, FIG. 23C. Type of data set: cell-based. Here is the method: Methods: CD14+ monocytes were isolated from PBMCs and differentiated to macrophages in RPMI/10% FBS with 10 ng/mL GM-CSF. After 6 days in culture, cells were replated into a 12 well dish, with 250K cells/well. The following day, they were mock transduced or transduced with vector control (EGFRt) or a vector encoding constitutive IL-7 under the control of the EF1a promoter. Autologous T cells were transduced with a chimeric cytokine receptor shown on FIG. 23A, and an anti-EGFRvIII specific CAR. T cells were magnetically separated based on CD4 and CD8 expression and expanded in vitro using Miltenyi CD3/CD28 beads and frozen. CFSE Cell Trace labeled CD4 or CD8 T cells were used in proliferation assays in response to IL-7 transduced macrophages.

Consider `O=C1CCC2(Cc3ccc(Cl)cc3)Cc3cc(O)ccc3C2=C1c1ccc(OCCN2CCCCC2)cc1` (stereo not shown) [CMP8, 9a-(4-Chlorobenzyl)-7-hydroxy-4-[4-(2-piperidin-1-ylethoxy)phenyl]-1,2,9,9a-tetrahydro-3H-fluoren-3-one], for which the toxicity to macrophages entry in data set [1] is given as “toxicity is linked to CMP8”.
`Cc1cccc(-c2nn3c(c2-c2ccnc4ccc(C(N)=O)cc24)CCC3)n1` [Galunisertib]: the “toxicity to primary macrophages” value in data set [2] is given as “neither molecule alone or in combination is toxic to primary macrophages”. For the same molecule, the “phenotypic or functional response to stimulation” value in data set [3] is reported as “little impact on phenotypic or functional response to stimulation”.
Regarding `CCOCc1nc2c(N)nc3ccccc3c2n1CC(C)(C)O` [resiquimod], the “toxicity to primary macrophages” value in data set [2] is “neither molecule alone or in combination is toxic to primary macrophages”.
As for `Oc1cccc(-c2nc(N3CCOCC3)c3oc4ncccc4c3n2)c1` [PI103], in data set [4], the “antigen presentation surface proteins CD80 and CD86” value is “increase”; the “surface markers consistent with an anti-inflammatory phenotype” value is given as “decrease”. In addition, in data set [5], the “pro-inflammatory TNFalpha production” value is listed as “increase”. The pro-inflammatory cytokine production entry in data set [6] was “decrease”.

B1: macrophage derived IL-7: IL-7 produced by macrophages transduced with a vector encoding constitutive IL-7 (protein, UniProt P13232 26-177, looked up)
Interleukin-7: DCDIEGKDGKQYESVLMVSIDQLLDSMKEIGSNCLNNEFNFFKRHICDANKEGMFLFRAARKLRQFLKMNSTGDFDLHLLKVSEGTTILLNCTGQVKGRKPAALGEAQPTKSLEENKSLKEQKKLNDLCFLKRLLQEIKTCWNKILMGTKEH
For the molecule B1, the “expression of exhaustion markers TIM3, PD-1, and CD95” value in data set [7] is on record as “reduced”; in data set [7] (listed as GEM derived IL-7), “reduces exhaustion marker expression”.
